From US11235033B1, “Materials and methods for the treatment of vascular calcification” (THE FLORIDA INTERNATIONAL UNIVERSITY BOARD OF TRUSTEES, priority 2020, dated 2022)
Entries after “also recorded” stand apart in the source; their conditions may differ. Read-outs that look alike come from different tables or passages of the source.

Key:
caveolin-1 [1] = test: Immunofluorescence of caveolin-1 localization in SMCs in pro-calcific media; type: cell-based, human; conditions: 1 μM AG1478, SMCs in pro-calcific media; FIG. 13
Excerpt: (§1) The vasodilatory effects of RXFP1 agonism occurs through interactions within caveolae on endothelial cells. G-protein-coupled receptors (GPCRs), such as RXFP1, use caveolae scaffolding domains to regulate interactions with other proteins and activate downstream signaling. […] RXFP1 agonism may stabilize existing caveolae, leading to the observed decreased caveolin-1 turnover. RXFP1 agonist-induced stabilization of caveolae may prevent the formation of calcifying EVs.
(§2) To determine changes in caveolin-1 associated with the culture conditions and treatments, western blotting and immunofluorescence are used to assay caveolin-1 phosphorylation on tyrosine 14. This site is associated with changes in EGFR activity and caveolae internalization. Immunofluorescence is then used to assess the localization of caveolin-1 within the SMCs for the different culture conditions at these time points. Western blotting is used to quantify caveolin-1 in EVs relative to SMC lysates.

caveolin-1 [2] = test: Western blotting of caveolin-1 in SMCs and in EVs under pro-calcific conditions; type: cell-based, human; conditions: AG 1478 2.5 μM; for EV caveolin-1: EVs under pro-calcific conditions, FIG. 8D; for intracellular caveolin-1: SMCs, FIG. 8C
Excerpt: (§3) EVs from the in vitro samples are isolated using previously established procedures, which includes 1,000×g and 10,000×g centrifugations to remove cells and large contaminants and a 100,000×g ultracentrifugation to obtain EVs suspended in conditioned media.
as §2

[3] = tested on: tissue non-specific alkaline phosphatase (TNAP); test: TNAP activity in EVs released by SMCs; type: cell-based, human; conditions: AG 1478 2.5 μM, FIG. 8B
Excerpt: To obtain EVs from the mouse aortae, following collagenase digestion and tissue homogenization using a Dounce homogenizer, cells and large extracellular aggregates are removed by centrifugation steps of 1,000×g and 10,000×g, respectively. EVs are isolated from the remaining supernatant by ultracentrifugation at 100,000×g. Western blotting analyses of commonly enriched EV markers determine the efficacy of the isolation procedures. The presence of caveolin-1 and activity of the pro-calcific enzyme TNAP are also assessed in the extracted EVs.
as §3

dynamin = conditions: cited from earlier work
[4] = tested on: primary human coronary artery smooth muscle cells; test: Calcific mineral formation by SMCs cultured in pro-calcific (osteogenic) media in vitro; type: cell-based; conditions: for SMC mineralization in vitro: AG 1478 2.5 μM, FIG. 8A
Description: Pro-calcific media, optimized to induce calcification, consists of growth media supplemented with 10 nM dexamethasone, 100 μM L-ascorbic acid, and 10 mM β-glycerolphosphate. All in vitro experiments proceed for 14 days, when release of calcifying EVs from human coronary artery SMCs in pro-calcific media peaks.
[…] Changes in SMC phenotype are assayed in the culture conditions and in response to the small molecule treatments by measuring expression of osteogenic and SMC relevant genes at the time points considered. In vitro mineralization is assessed using alizarin red S staining, extraction, and colorimetric analyses after 21 days in culture.

CKD mice = test: Aortic calcification in CKD mice fed a high phosphate diet; type: in vivo, mouse; conditions: for calcification in treated CKD mice: CKD diet regimen, AG1478 20 mg/kg or ML290 30 mg/kg oral gavage every 2 days
Description: Eight-week old SMMHC-CreER^T2+/Cav1^fl/fl mice receive daily intraperitoneal injections of either peanut oil (vehicle control) or tamoxifen (1 mg/kg) for two weeks. Following the final injection, mice receive an adenine-enriched (0.2%) diet for 6 weeks to induce kidney dysfunction. Elevated phosphate (1.8%) is then added to the diet to induce medial calcification. Using a sensitive near-infrared calcium mineral tracer (OsteoSense 680), significant aortic calcification in mice was observed after 2 weeks of the high phosphate diet (FIG. 1). Vascular calcification continues to increase for up to 6 weeks of the high phosphate diet.
To test the therapeutic efficacy of these small molecules, e.g., ML290 or AG1478, the same CKD diet regimen is used as discussed above. A mouse model designed to test agonists for human RXFP1 is utilized.
Beginning at prescribed time points (FIG. 11), mice are treated with the EGFR inhibitor, AG1478 (20 mg/kg), or ML290 (30 mg/kg) via oral gavage every 2 days. Control mice receive vehicle gavage. The treatments begin either at the initiation of the high phosphate diet (to determine if the treatments prevent mineral formation) or after two weeks of the high phosphate diet (to determine if the treatments can reverse medial calcification).

RXFP1 [5] = target: T1, RXFP1 (Homo sapiens, UniProt Q9HBX9); conditions: cited from earlier work
T1 sequence (Q9HBX9 1-757): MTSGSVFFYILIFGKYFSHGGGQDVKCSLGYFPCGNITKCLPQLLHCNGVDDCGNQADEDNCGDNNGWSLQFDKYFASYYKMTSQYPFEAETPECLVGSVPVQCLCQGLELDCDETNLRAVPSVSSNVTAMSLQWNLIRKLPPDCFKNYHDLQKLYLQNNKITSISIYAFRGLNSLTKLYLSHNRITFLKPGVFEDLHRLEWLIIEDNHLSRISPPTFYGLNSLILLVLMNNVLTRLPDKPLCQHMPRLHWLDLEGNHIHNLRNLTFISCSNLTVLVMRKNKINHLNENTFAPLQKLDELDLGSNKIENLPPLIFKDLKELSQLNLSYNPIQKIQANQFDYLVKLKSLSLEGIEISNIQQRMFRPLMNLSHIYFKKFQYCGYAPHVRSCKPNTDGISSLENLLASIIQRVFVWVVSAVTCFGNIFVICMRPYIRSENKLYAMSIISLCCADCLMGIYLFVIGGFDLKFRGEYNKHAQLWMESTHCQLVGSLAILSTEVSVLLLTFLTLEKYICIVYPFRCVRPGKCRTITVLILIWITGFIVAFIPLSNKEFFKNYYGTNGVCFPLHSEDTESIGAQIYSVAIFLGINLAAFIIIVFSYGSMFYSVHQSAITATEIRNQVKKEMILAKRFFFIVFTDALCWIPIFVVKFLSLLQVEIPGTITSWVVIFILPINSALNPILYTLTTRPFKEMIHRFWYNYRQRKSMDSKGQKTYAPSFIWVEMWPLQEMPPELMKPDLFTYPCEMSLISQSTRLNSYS

PPARGC1A = PPARGC1A gene expression in SMCs cultured in pro-calcific media; type: cell-based, human; conditions: FIG. 15
Excerpt: The modulation of a different GPCR, the serotonin 2B receptor, alters intracellular trafficking to prevent calcification by aortic valve cells. Both 5-HT2B and RXFP1 can modulate vascular tone through interactions with nitric oxide synthase—a known caveolin-1 interactor. RXFP1 may, however, affect caveolin-1 protein stability directly. Peroxisome Proliferator-Activated Receptor γ (PPARγ) activation promotes lysosomal degradation of caveolin-1 in pulmonary artery SMCs. […] Therefore, thus result indicates the potential mechanism for the observed anti-calcific effects of ML290.

atherogenic Apoe−/− mice = test: Calcification (OsteoSense fluorescence) in atherogenic Apoe-/- mice; type: in vivo, mouse; conditions: oral gavage 30 mg/kg; for OsteoSense fluorescence (mineral) vs vehicle treated controls: after 25 weeks of atherogenic diet
Excerpt: A chow control is shown for comparison (first aorta). C) Quantification of mice treated with ML290 at the initiation of the atherogenic diet. […] D) Quantification of OsteoSense signal in mice treated at 15 weeks of atherogenic diet, indicating potential of treatment to reverse existing remodeling. #p<0.0001.
Relaxin Family Peptide Receptor 1 (RXFP1) agonism induces vasodilation through a mechanism that may involve interactions with endothelial nitric oxide synthase within caveolae. The relaxin peptide, activating RXFP1, has therapeutic potential in treating fibrosis and vasculopathies.

caveolin-1 [6] = test: Caveolin-1 gene expression in pro-calcific SMC culture; type: cell-based, human; conditions: SMCs, pro-calcific conditions, 24 h; FIG. 14
Excerpt: as §1

THP1 cells = conditions: cited from earlier work
RXFP1 [7] = target: T1, RXFP1; conditions: cited from earlier work; remark: listed apart in the source
[8] = Adverse events in 25-week atherosclerotic mouse study; type: in vivo; conditions: mice, oral gavage, preliminary 25-week atherosclerotic study
[9] = Pharmacokinetics study of ML290 via oral administration in hRXFP1/hRXFP1 mice; type: in vivo; conditions: mouse, 30 mg/kg oral
rodent receptor = target: T2, rodent receptor (Mus musculus, UniProt Q6R6I7); conditions: cited from earlier work
T2 sequence (Q6R6I7 1-758): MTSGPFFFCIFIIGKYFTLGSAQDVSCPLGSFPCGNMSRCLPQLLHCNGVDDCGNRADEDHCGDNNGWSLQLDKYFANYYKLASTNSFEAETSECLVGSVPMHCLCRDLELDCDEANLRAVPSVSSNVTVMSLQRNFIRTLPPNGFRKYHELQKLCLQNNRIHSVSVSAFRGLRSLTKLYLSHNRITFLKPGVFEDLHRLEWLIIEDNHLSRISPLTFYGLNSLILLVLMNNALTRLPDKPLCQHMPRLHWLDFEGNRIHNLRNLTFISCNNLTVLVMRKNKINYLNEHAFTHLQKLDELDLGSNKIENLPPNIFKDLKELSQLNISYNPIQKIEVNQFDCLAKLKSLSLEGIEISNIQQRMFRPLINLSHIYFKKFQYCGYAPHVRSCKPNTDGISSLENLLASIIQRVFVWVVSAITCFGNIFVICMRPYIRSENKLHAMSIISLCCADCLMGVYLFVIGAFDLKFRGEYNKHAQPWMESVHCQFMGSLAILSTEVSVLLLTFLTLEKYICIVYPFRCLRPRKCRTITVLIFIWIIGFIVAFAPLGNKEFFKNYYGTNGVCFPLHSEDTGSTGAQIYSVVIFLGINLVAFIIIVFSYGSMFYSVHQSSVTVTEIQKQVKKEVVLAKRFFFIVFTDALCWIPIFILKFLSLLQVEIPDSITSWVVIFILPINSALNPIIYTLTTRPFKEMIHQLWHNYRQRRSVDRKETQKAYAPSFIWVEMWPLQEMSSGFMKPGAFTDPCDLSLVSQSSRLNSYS

hypertensive rats = conditions: chronic treatment; cited from earlier work
[10] = in vivo; cited from earlier work

COc1cc2ncnc(Nc3cccc(Cl)c3)c2cc1OC [AG1478]
caveolin-1 plasma membrane (peripheral) localization (caveolin-1 [1]): maintained the peripheral localization of caveolin-1; also recorded: preserves caveolin-1 (red) plasma membrane localization | EV caveolin-1 (caveolin-1 [2]): reduces caveolin-1 released in EVs; also recorded: decreases EV caveolin-1 | EV caveolin-1 (caveolin-1 [2]; listed as AG 1478): reduces EV caveolin-1 | intracellular caveolin-1 (caveolin-1 [2]): does not change intracellular caveolin-1; also recorded: without affecting intracellular caveolin-1 levels | intracellular caveolin-1 (caveolin-1 [2]; listed as AG 1478): does not affect intracellular caveolin-1 | EV TNAP activity [3]: reduces activity | EV TNAP activity ([3]; listed as AG 1478): reduces EV TNAP activity | dynamin activity (dynamin): reduces dynamin activity | SMC mineralization in vitro [4]: prevents calcific mineral formation | SMC mineralization in vitro ([4]; listed as AG 1478): prevents SMC mineralization | calcification in treated CKD mice (CKD mice): Diminished calcification

CC(C)Oc1ccccc1C(=O)Nc1ccccc1C(=O)Nc1cccc(S(=O)(=O)C(F)(F)F)c1 [ML290]
selectivity towards RXFP1 over RXFP2 receptors (RXFP1 [5]): > 100 fold | PPARGC1A gene expression (PPARGC1A): increases PPARGC1A; also recorded: increased expression of PPARGC1A | calcification in vivo (atherogenic Apoe−/− mice; Apoe−/− mice, FIG. 9B, 30 mg/kg): mitigates calcification; also recorded: reduces calcification in vivo | OsteoSense fluorescence (mineral) vs vehicle treated controls (atherogenic Apoe−/− mice; treated after 15 weeks of atherogenic diet): Lower OsteoSense fluorescence | OsteoSense fluorescence (mineral) vs vehicle treated controls (atherogenic Apoe−/− mice; treated at the beginning of the atherogenic diet): Lower OsteoSense fluorescence | caveolin-1 gene expression (caveolin-1 [6]): decreases caveolin-1 gene expression; also recorded: reduces caveolin-1 expression | VEGF gene expression (THP1 cells): increase | cAMP levels (THP1 cells): increase | agonism of human RXFP1 (RXFP1 [7]): potent and efficacious non-peptide agonist; also recorded: specific agonist for human RXFP1 | mineral formation by vascular smooth muscle cells in vitro ([4]; ML290 5 μM, FIG. 9A): significantly reduces mineral formation | anti-calcification effect on human SMCs in vitro ([4]; primary human coronary artery smooth muscle cells cultured in osteogenic stimuli): mitigates calcification; also recorded: profound anti-calcification effects | adverse events [8]: No adverse events | calcification in treated CKD mice (CKD mice): Diminished calcification | aortic calcification (CKD mice; CKD mice, 30 mg/kg oral gavage from initiation of high phosphate diet, 2 weeks, FIG. 12, 30 mg/kg): significant prevented aortic calcification; also recorded: significantly prevents aortic calcification | half-life ([9]; aorta, read-out: t½ in aorta (converted)): 8 h | half-life ([9]; serum, read-out: t½ in serum (converted)): 11 h | activation of rodent receptor (rodent receptor): does not activate rodent receptor

relaxin
arterial compliance (hypertensive rats): improved arterial compliance | safety and tolerability [10]: safe and well-tolerated
